Test results published in patent publication US6217875A, “Inhibitors of lipoxygenase” (priority 1997, dated 2001).
Entries after “also recorded” stand apart in the source; their conditions may differ. Read-outs that look alike come from different tables or passages of the source. Each block holds one compound with its values, some of them ahead of it.

Assays:
[1] = tested on: TPA-induced inflammation to the ears of mice; details: skin, 0.5 mg/ear; already reported data; cited from earlier work
[2] = tested on: oxazolone-induced inflammation in the ears of mice; details: skin, 1.0 mg/ear; already reported data; cited from earlier work
5-lipoxygenase = molecular target: T1, 5-lipoxygenase (Rattus norvegicus, UniProt P12527); test: Test of 5-Lipoxygenase Inhibitory Activity (rat PMNL enzyme, radiolabelled arachidonic acid, TLC); assay type: biochemical, Wistar-King rats
T1 construct: The supernatant was used as the enzyme solution of 5-lipoxygenase; from tissue; host or cells: peritoneal polymorphonuclear leukocytes (PMNL) of glycogen-injected Wistar-King rats, homogenate supernatant
T1 sequence (P12527 1-673): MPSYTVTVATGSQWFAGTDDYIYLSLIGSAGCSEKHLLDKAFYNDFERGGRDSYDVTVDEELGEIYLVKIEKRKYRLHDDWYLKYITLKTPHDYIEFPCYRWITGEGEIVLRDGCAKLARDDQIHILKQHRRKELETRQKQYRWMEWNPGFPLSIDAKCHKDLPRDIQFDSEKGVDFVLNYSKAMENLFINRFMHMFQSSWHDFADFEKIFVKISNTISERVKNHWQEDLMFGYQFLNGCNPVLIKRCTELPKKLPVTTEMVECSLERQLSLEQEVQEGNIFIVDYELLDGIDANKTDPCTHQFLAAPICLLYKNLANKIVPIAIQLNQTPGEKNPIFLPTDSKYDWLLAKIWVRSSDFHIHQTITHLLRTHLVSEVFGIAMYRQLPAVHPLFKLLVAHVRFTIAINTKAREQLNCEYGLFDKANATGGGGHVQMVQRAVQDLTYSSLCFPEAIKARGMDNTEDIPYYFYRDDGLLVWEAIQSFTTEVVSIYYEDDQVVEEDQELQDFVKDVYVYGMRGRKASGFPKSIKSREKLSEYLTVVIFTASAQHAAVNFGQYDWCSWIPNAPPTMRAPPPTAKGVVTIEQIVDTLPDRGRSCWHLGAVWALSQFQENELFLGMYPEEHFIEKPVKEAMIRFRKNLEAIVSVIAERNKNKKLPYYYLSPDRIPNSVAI
Description: (1) Formation of Enzyme Solution of 5-Lipoxygenase
Peritoneal polymorphonuclear leukocytes (PMNL) were prepared from normal Wistar-King rats (150-400 g) injected intraperitoneally with 5% (w/v) glycogen (20 mL/kg). A suspension in potassium phosphate buffer (50 mM, pH 7.4) was homogenized and centrifuged. The supernatant was used as the enzyme solution of 5-lipoxygenase.
(2) Measurement of Inhibitory Activity Against 5-Lipoxygenase
0.02 mL Of enzyme solution (2 mg protein/mL) and [1l-^14 C] arachidonic acid ([…]) were incubated with each testing solution (0.02 mL) and Ca^2+ and ATP at 37° C. for 5 min.
After incubation at 37° C. for 5 min, the reaction was terminated by adding 0.2 mL of 0.5 N formic acid, and the metabolite was extracted by 3 mL of ethyl acetate.
Then the extracted solution was subjected to thin-layer chromatography (TLC) and developed with ether/petroleum ether/acetic acid (50:50:1, v/v) at 4° C. The radioactive metabolites generated by 5-lipoxygenase were detected and quantified using autoradiography. The inhibitory activity on 5-lipoxygenase was measured and expressed as a percentage of the control.

12-lipoxygenase = test: Test of 12-Lipoxygenase Inhibitory Activity (rat platelet enzyme, radiolabelled arachidonic acid, TLC); assay type: biochemical, Wistar-King rats
Description: A test of the substances' effectiveness as inhibitors of the enzyme activity of 12-lipoxygenase was conducted for Embodiment 1 to 4.
(1) Formation of Enzyme Solution of 12-Lipoxygenase
Blood was collected from normal Wistar-King rats (150-400 g) and 0.5 mM of EDTA was added as anti-coagulant. The centrifuged supernatant (1,200 rpm for 10 min.) was again centrifuged at 3,000 rpm for 10 min. The deposited platelets were washed by 25 mM Tris/HCl buffer (pH 7.4) 1 mM EDTA /130 mM NaCl. The suspension of platelets in 1 mM EDTA was homogenized and used as an enzyme solution of 12-lipoxygenase.
(2) Measurement of Inhibitory Activity of 12-Lipoxygenase
Four to six testing solutions with different levels of concentration were prepared for Embodiment 1 to 4. 0.13 mL of enzyme solution (2 mg protein/mL) and [1-^14 C] arachidonic acid ([…]) were incubated with a testing solution (0.02 mL) at 37° C. for 5 min.
After incubation at 37° C. for 5 min., the reaction was terminated by adding 0.2 mL of 0.5 N formic acid, and the metabolite was extracted by adding 3 mL of ethyl acetate. […] The radioactive metabolites of 12 lipoxygenase were detected and quantified using autoradiography. The inhibitory activity of 12-lipoxygenase was measured and expressed as a percentage of the control.

[3] = tested on: TPA-induced inflammation to the ears of mice; test: Regulating inflammatory reaction against TPA-induced inflammation to the ears of mice, application to the skin; assay type: in vivo, mice (ICR); details: for Regulating Coefficient: TPA 0.8 μg/20 μl/ear, after 4 hours
Description: (§1) (1) Application to the Skin
Test solutions for Embodiment 1, 3 and 4 were prepared and applied to the right ears of mice (ICR, 5 weeks old, Clair) by adding acetone solution of TPA (0.8 μg/20 μl/ear).

[4] = tested on: oxazolone-induced inflammation in the ears of mice; test: Allergy control test against oxazolone-induced inflammation in the ears of mice, application to the skin; assay type: in vivo, mice (I.C.R)
Description: As described in this section, an allergy control test of oxazolone-induced inflammation to the ears of mice was conducted.
as §1
Oxazolone solution in ethanol (500 μg/100 μl) was applied to the abdominal region of mice (I.C.R, 5 weeks old, Clair), that had been shaved by hair clippers under an anesthetic of Nembutal (Immunization).
After 5 days of immunization, oxazolone solution in acetone, containing a prescribed amount of the sample being tested (Embodiment 1), was applied to the right ears of the mice (Challenge).
Also, as a comparison, data on NDGA (Comparison 7), ketoprophen (Comparison 8), phenidone (Comparison 9) and mepiramine (Comparison 10) which had already been reported, were listed in Table 3.

lipoxygenase = test: Inhibition of lipoxygenase enzyme activity (general statement); assay type: biochemical; details: enzyme not given

SMILES: CC(Cc1ccc(O)c(O)c1)C(C)Cc1ccc(O)c(O)c1 (stereo not shown) [Comparison 7, NDGA]
Regulating Coefficient [1]: 40%
Regulating Coefficient [2]: 38%

SMILES: COc1ccc(CN(CCN(C)C)c2ccccn2)cc1 [Comparison 10, mepiramine]
Regulating Coefficient [2]: 38%

SMILES: O=C1CCN(c2ccccc2)N1 [Comparison 9, phenidone]
Regulating Coefficient [2]: 44%

SMILES: O=c1cc(-c2ccc(O)c(O)c2)oc2cc(O)cc(O)c12 [Embodiment 1, luteolin]
Inhibitory activity against 5-lipoxygenase (in words) (5-lipoxygenase; in words): significant 5-LO inhibitory activity; also recorded: stronger inhibitory activity than that of Comparison 1 (rosemarinic acid) and Comparison 2 (rosemarinic acid methyl ester)
IC50 (5-lipoxygenase; rat PMNL enzyme, 37° C., 5 min): 0.1 µM
Inhibitory activity against 12-lipoxygenase (in words) (12-lipoxygenase): very strong inhibitory activity, similar to that against 5-lipoxygenase
Regulating Coefficient ([3]; 0.15 mg/ear): 85%
Regulating Coefficient ([3]; 0.3 mg/ear): 100%
Regulating effect against inflammation (in words) ([3]; in words): significant regulating effect against inflammation; also recorded: anti-inflammatory action, which correlated with the concentration of luteolin
Regulating Coefficient ([4]; 0.3 mg/ear, 48 hours after challenge): 52%
Anti-allergic action (in words) [4]: higher regulating coefficient for a smaller amount of application against Comparisons 7 to 10
Anti-allergic action (in words) ([4]; listed as luteolin): significant anti-allergic action
Inhibition of lipoxygenase enzyme activity (in words) (lipoxygenase): strongly inhibit lipoxygenase enzyme activity; also recorded: outstanding inhibitory activity

SMILES: CC(C(=O)O)c1cccc(C(=O)c2ccccc2)c1 (stereo not shown) [Comparison 8, ketoprophen]
Regulating Coefficient [2]: 32%

SMILES: COc1cc(-c2cc(=O)c3c(O)cc(O)cc3o2)ccc1O [Embodiment 2, chrysoeriol]
Inhibition of lipoxygenase enzyme activity (in words) (lipoxygenase): strongly inhibit lipoxygenase enzyme activity; also recorded: lesser inhibitory activity

SMILES: O=C(O)/C=C/c1ccc(O)c(O)c1 [Comparison 5, caffeic acid, reference compound]
IC50 (5-lipoxygenase): 72 µM

SMILES: O=C(/C=C/c1ccc(O)c(O)c1)O[C@H](Cc1ccc(O)c(O)c1)C(=O)O [Comparison 1, rosemarinic acid, reference compound]
IC50 (5-lipoxygenase): 6.2 µM
Inhibition of lipoxygenase enzyme activity (in words) (lipoxygenase): strongly inhibit lipoxygenase enzyme activity

SMILES: O=c1cc(-c2ccc(O)cc2)oc2cc(O)cc(O)c12 [apigenin]
Inhibition of lipoxygenase enzyme activity (in words) (lipoxygenase): strongly inhibit lipoxygenase enzyme activity

IC50 (5-lipoxygenase; rat PMNL enzyme, 37° C., 5 min): 0.6 µM
SMILES: COC(=O)[C@@H](Cc1ccc(O)c(O)c1)OC(=O)/C=C/c1ccc(O)c(O)c1 [Comparison 2, rosemarinic acid methyl ester, reference compound]
Inhibition of lipoxygenase enzyme activity (in words) (lipoxygenase): strongly inhibit lipoxygenase enzyme activity
